What all share (assay type): cell-based
For one experiment, the system named is Mino cells. The experiment can be described thus: Inhibitory activity on Mino cell proliferation (MTS). Particulars: Homo sapiens, 72 h or 168 h. On the procedure:
(§1) The anti-tumor efficacy of the compounds was tested by measuring their inhibitory effects on OCI-LY10 and Mino cell proliferation. OCI-LY10 and Mino cells were cultured in RPM-1640 medium containing […] fetal calf serum. OCI-LY10 and Mino cells were digested, inoculated in a 96-well plate at a cell concentration of 10000 cells/well, and incubated overnight at 37° C., 5% CO2. Compounds of different concentrations (1000 nM, 4-fold dilution, 8 points) were added to the 96-well plate and incubated for 72 h or 168 h at 37° C. and […], and then 20 μL of MTS was added to each well. After incubation for 2 h, 25 μl of 10% SDS was added to each well to terminate the reaction. The absorbance at 490 nm and 650 nm were measured with a microplate reader. IC50 was calculated using GraphPad Prism 5.0.

The next experiment deals with T1, BTK (Homo sapiens, UniProt Q06187).
T1 construct: endogenous in cells; host or cells: Mino cells
T1 sequence (Q06187 whole entry): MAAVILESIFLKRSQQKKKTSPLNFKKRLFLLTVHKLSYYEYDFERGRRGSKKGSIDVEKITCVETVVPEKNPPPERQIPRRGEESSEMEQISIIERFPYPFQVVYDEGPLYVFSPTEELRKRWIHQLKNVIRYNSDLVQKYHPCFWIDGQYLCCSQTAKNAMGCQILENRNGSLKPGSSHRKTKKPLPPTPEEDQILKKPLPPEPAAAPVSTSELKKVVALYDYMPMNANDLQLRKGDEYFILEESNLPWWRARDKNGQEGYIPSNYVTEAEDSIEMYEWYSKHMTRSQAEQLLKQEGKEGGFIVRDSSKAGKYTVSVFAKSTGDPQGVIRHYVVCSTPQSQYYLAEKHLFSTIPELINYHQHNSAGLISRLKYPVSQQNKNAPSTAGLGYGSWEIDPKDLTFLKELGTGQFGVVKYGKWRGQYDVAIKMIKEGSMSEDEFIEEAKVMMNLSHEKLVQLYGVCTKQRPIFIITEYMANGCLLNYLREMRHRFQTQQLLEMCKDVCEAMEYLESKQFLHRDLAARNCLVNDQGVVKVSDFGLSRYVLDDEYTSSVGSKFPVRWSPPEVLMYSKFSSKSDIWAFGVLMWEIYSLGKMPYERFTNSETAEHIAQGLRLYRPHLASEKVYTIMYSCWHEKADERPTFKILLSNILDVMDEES
Kind of experiment: BTK degradation activity test in Mino cells (Westernblot or Elisa). The conditions noted are these: 24-72 h incubation. On the procedure:
The Mino cell line cells are 0.5˜1 million/well in 6-well plates. The compounds are diluted to different concentrations, added to the plate, and after 24-72 h of incubation, the cells are collected. After the cells were lysed, the total protein concentration in each well was determined with a BCA kit. The amount of BTK is determined using the Westernblot or Elisa method.

Another experiment concerns OCI-LY10 cells. Kind of experiment: Inhibitory activity on OCI-LY10 cell proliferation (MTS). The conditions noted are these: Homo sapiens, 72 h or 168 h. The protocol:
as §1

Bounds are passed on as bounds.

18 compounds from patent US20260167620A1, “MULTIFUNCTIONAL COMPOUND CAPABLE OF DEGRADING BTK KINASE, AND COMPOSITION AND USE” (HANGZHOU HEALZEN THERAPEUTICS CO., LTD., priority 2021, published 2026) can be followed below.

By IC50 is commonly meant the concentration at which inhibition is half-maximal. Read a low IC50 as inhibition by little substance. Broadly, the DC50 is the midpoint of the concentration-degradation curve. The low end stands for a more potent degrader, the high end for a less potent degrader.

As for `NC(=O)c1nnc(N2CCCCC2)nc1Nc1ccc(C2CCN(CC3CCN(c4ccc5c(c4)C(=O)N(C4CCC(=O)NC4=O)C5=O)C3)CC2)nn1` (stereo not shown) [Compound 004, 5-((6-(1-((1-(2-(2,6-dioxopiperidin-3-yl)-1,3-dioxoisoindolin-5-yl)pyrrolidin-3-yl)methyl)piperidin-4-yl)pyridazin-3-yl)amino)-3-(piperidin-1-yl)-1,2,4-triazine-6-carboxamide], the figures for the half-maximal inhibitory concentration (IC50) with Mino cells and in the experiment on OCI-LY10 cells were 1.15 nM and 0.18 nM, respectively. Moreover, at BTK, the DC50 was < 10 nM.

Regarding `NC(=O)c1nnc(N2CCCCC2)nc1Nc1cnc(C2CCN(CC3CCN(c4ccc5c(c4)C(=O)N(C4CCC(=O)NC4=O)C5=O)C3)CC2)nc1` (stereo not shown) [Compound 005, 5-((2-(1-((1-(2-(2,6-dioxopiperidin-3-yl)-1,3-dioxoisoindolin-5-yl)pyrrolidin-3-yl)methyl)piperidin-4-yl)pyrimidin-5-yl)amino)-3-(piperidin-1-yl)-1,2,4-triazine-6-carboxamide], the results for the IC50 in the experiment with Mino cells and in the experiment with OCI-LY10 cells were 2.47 nM and 0.41 nM, respectively. The DC50 at BTK is < 10 nM.

As for `Cn1c(=O)n(C2CCC(=O)NC2=O)c2ccc(N3CCC(CN4CCC(c5ccc(Nc6nc(N7CCCCC7)nnc6C(N)=O)cc5)CC4)C3)cc21` (stereo not shown) [Compound 011, 5-((4-(1-((1-(1-(2,6-dioxopiperidin-3-yl)-3-methyl-2-oxo-2,3-dihydro-1H-benzo[d]imidazol-5-yl)pyrrolidin-3-yl)methyl)piperidin-4-yl)phenyl)amino)-3-(piperidin-1-yl)-1,2,4-triazine-6-carboxamide], half-maximal inhibition in the experiment on Mino cells (IC50) required 4.2 nM. In addition, the DC50 at BTK was < 10 nM.

On to `NC(=O)c1nnc(N2CCCCC2)nc1Nc1ccc(C2CCN(CC3CCN(c4ccc5c(=O)n(C6CCC(=O)NC6=O)ccc5c4)C3)CC2)cc1` (stereo not shown) [Compound 012, 5-((4-(1-((1-(2-(2,6-dioxopiperidin-3-yl)-1-oxo-1,2-dihydroisoquinolin-6-yl)pyrrolidin-3-yl)methyl)piperidin-4-yl)phenyl)amino)-3-(piperidin-1-yl)-1,2,4-triazine-6-carboxamide], for which the concentration for half-maximal inhibition (IC50) with Mino cells stood at 1.22 nM. For the same compound, the half-maximal degradation concentration (DC50) at BTK was < 10 nM.

In the experiment on Mino cells, `NC(=O)c1nnc(N2CCCCC2)nc1Nc1ccc(C2CCN(CC3CCN(c4ccc5c(c4)CCN(C4CCC(=O)NC4=O)C5=O)C3)CC2)cc1` (stereo not shown) [Compound 013, 5-((4-(1-((1-(2-(2,6-dioxopiperidin-3-yl)-1-oxo-1,2,3,4-tetrahydroisoquinolin-6-yl)pyrrolidin-3-yl)methyl)piperidin-4-yl)phenyl)amino)-3-(piperidin-1-yl)-1,2,4-triazine-6-carboxamide] showed a 50% inhibitory concentration (IC50) of 3.37 nM. Also, the DC50 on BTK is < 10 nM.

The compound `NC(=O)c1cnc(N2CCCCC2)nc1Nc1ccc(C2CCN(CC3CCN(c4ccc5c(c4)C(=O)N(C4CCC(=O)NC4=O)C5=O)C3)CC2)cc1` (stereo not shown) [Compound 033, 4-((4-(1-((1-(2-(2,6-dioxopiperidin-3-yl)-1,3-dioxoisoindolin-5-yl)pyrrolidin-3-yl)methyl)piperidin-4-yl)phenyl)amino)-2-(piperidin-1-yl) pyrimidine-5-carboxamide] displayed a half-maximal inhibitory concentration (IC50) in the experiment on Mino cells of 9.1 nM. Further, the DC50 on BTK was < 10 nM.

Turning to `NC(=O)c1nnc(N2CCCCC2)nc1Nc1ccc(N2CCC(CN3CCN(c4ccc(N5CCC(=O)NC5=O)cc4)CC3)CC2)nc1` [Compound 048, 5-((6-(4-((4-(4-(2,4-dioxotetrahydropyrimidin-1(2H)-yl)phenyl)piperazin-1-yl)methyl)piperidin-1-yl)pyridin-3-yl)amino)-3-(piperidin-1-yl)-1,2,4-triazine-6-carboxamide], the 50% degradation concentration (DC50) on BTK is < 10 nM. Moreover, the half-inhibitory concentration (IC50) in the experiment with OCI-LY10 cells came to 0.61 nM.

In the experiment with Mino cells, `NC(=O)c1nnc(N2CCCCC2)nc1Nc1ccc(N2CCC(CN3CCN(c4ccc(N5CCC(=O)NC5=O)cc4)CC3)CC2)c(F)c1` [Compound 050, 5-((4-(4-((4-(4-(2,4-dioxotetrahydropyrimidin-1(2H)-yl)phenyl)piperazin-1-yl)methyl)piperidin-1-yl)-3-fluorophenyl)amino)-3-(piperidin-1-yl)-1,2,4-triazine-6-carboxamide] displayed an IC50 of 6.05 nM. Also, the half-maximal degradation concentration (DC50) on BTK is < 10 nM.

As to `NC(=O)c1nnc(N2CCCCC2)nc1Nc1ccc(N2CCC(CN3CCN(c4ccc(C5CCC(=O)NC5=O)cn4)CC3)CC2)c(F)c1` (stereo not shown) [Compound 053, 5-((4-(4-((4-(5-(2,6-dioxopiperidin-3-yl)pyridin-2-yl)piperazin-1-yl)methyl)piperidin-1-yl)-3-fluorophenyl)amino)-3-(piperidin-1-yl)-1,2,4-triazine-6-carboxamide], the 50% degradation concentration (DC50) on BTK is < 10 nM. In addition, in the experiment on OCI-LY10 cells, the IC50 was determined as 1.73 nM.

For `Cc1cc(N2CCN(CC3CCN(c4ccc(Nc5nc(N6CCCCC6)nnc5C(N)=O)cc4F)CC3)CC2)ccc1N1CCC(=O)NC1=O` [Compound 076, 5-((4-(4-((4-(4-(2,4-dioxotetrahydropyrimidin-1(2H)-yl)-3-methylphenyl)piperazin-1-yl)methyl)piperidin-1-yl)-3-fluorophenyl)amino)-3-(piperidin-1-yl)-1,2,4-triazine-6-carboxamide], the half-maximal degradation concentration (DC50) at BTK was < 10 nM. In the experiment on OCI-LY10 cells, this compound gave an IC50 of 1.09 nM.

`NC(=O)c1nnc(N2CCCCC2)nc1Nc1ccc(N2CCN(CC3CCN(c4ccc(N5CCC(=O)NC5=O)c(F)c4)CC3)CC2)c(F)c1` [Compound 078, 5-((4-(4-((1-(4-(2,4-dioxotetrahydropyrimidin-1(2H)-yl)-3-fluorophenyl)piperidin-4-yl)methyl)piperazin-1-yl)-3-fluorophenyl)amino)-3-(piperidin-1-yl)-1,2,4-triazine-6-carboxamide]: the DC50 at BTK was < 10 nM. In addition, in the experiment with OCI-LY10 cells, the IC50 was 0.7 nM.

In the case of `NC(=O)c1nnc(N2CCCCC2)nc1Nc1ccc(N2CCN(CC3CCN(c4ccc(C(=O)NC5CCC(=O)NC5=O)c(F)c4)CC3)CC2)c(F)c1` (stereo not shown) [Compound 083, 5-((4-(4-((1-(4-((2,6-dioxopiperidin-3-yl)carbamoyl)-3-fluorophenyl)piperidin-4-yl)methyl)piperazin-1-yl)-3-fluorophenyl)amino)-3-(piperidin-1-yl)-1,2,4-triazine-6-carboxamide], the half-maximal degradation concentration (DC50) at BTK was < 10 nM. This compound showed an IC50 in the experiment on OCI-LY10 cells of 1.24 nM.

In the experiment with Mino cells, `Cc1cc(N2CCC(=O)NC2=O)ccc1N1CCC(CN2CCN(c3ccc(Nc4nc(N5CCCCC5)nnc4C(N)=O)cc3F)CC2)CC1` [Compound 084, 5-((4-(4-((1-(4-(2,4-dioxotetrahydropyrimidin-1(2H)-yl)-2-methylphenyl)piperidin-4-yl)methyl)piperazin-1-yl)-3-fluorophenyl)amino)-3-(piperidin-1-yl)-1,2,4-triazine-6-carboxamide] registered a half-inhibitory concentration (IC50) of 3.3 nM. The half-maximal degradation concentration (DC50) on BTK was < 10 nM.

Take `NC(=O)c1nnc(N2CCCCC2)nc1Nc1ccc(N2CCN(CC3CCN(c4ccc(N5CCC(=O)NC5=O)cc4F)CC3)CC2)c(F)c1` [Compound 086, 5-((4-(4-((1-(4-(2,4-dioxotetrahydropyrimidin-1(2H)-yl)-2-fluorophenyl)piperidin-4-yl)methyl)piperazin-1-yl)-3-fluorophenyl)amino)-3-(piperidin-1-yl)-1,2,4-triazine-6-carboxamide]: the DC50 on BTK was < 10 nM. For the same compound, the IC50 with OCI-LY10 cells was 0.7 nM.

For the compound `NC(=O)c1nnc(N2CCCCC2)nc1Nc1ccc(N2CCN(CC3CCN(c4ccc(-c5ccc(=O)[nH]n5)cc4C(F)(F)F)CC3)CC2)c(F)c1` [Compound 087, 5-((3-fluoro-4-(4-((1-(4-(6-oxo-1,6-dihydropyridazin-3-yl)-2-(trifluoromethyl)phenyl)piperidin-4-yl)methyl)piperazin-1-yl)phenyl)amino)-3-(piperidin-1-yl)-1,2,4-triazine-6-carboxamide], in the experiment on Mino cells, it took 4.31 nM to reach half-maximal inhibition (IC50). Also, the half-maximal degradation concentration (DC50) at BTK is < 10 nM.

Turning to `NC(=O)c1nnc(N2CCCCC2)nc1Nc1ccc(N2CCN(CC3CCN(c4ccc(NC5CCC(=O)NC5=O)c(F)c4)CC3)CC2)c(F)c1` (stereo not shown) [Compound 088, 5-((4-(4-((1-(4-((2,6-dioxopiperidin-3-yl)amino)-3-fluorophenyl)piperidin-4-yl)methyl)piperazin-1-yl)-3-fluorophenyl)amino)-3-(piperidin-1-yl)-1,2,4-triazine-6-carboxamide], on BTK, the DC50 was < 10 nM. The compound also yielded a concentration for half-maximal inhibition (IC50) in the experiment on OCI-LY10 cells of 0.66 nM.

Consider `Cc1cc(N2CCC(CN3CCN(c4ccc(Nc5nc(N6CCOCC6)nnc5C(N)=O)cc4F)CC3)CC2)ccc1N1CCC(=O)NC1=O` [Compound 098, 5-((4-(4-((1-(4-(2,4-dioxotetrahydropyrimidin-1(2H)-yl)-3-methylphenyl)piperidin-4-yl)methyl)piperazin-1-yl)-3-fluorophenyl)amino)-3-morpholino-1,2,4-triazine-6-carboxamide], for which the IC50 with Mino cells is 3.11 nM. The DC50 on BTK was < 10 nM.

Regarding `NC(=O)c1nnc(N2CCOCC2)nc1Nc1ccc(N2CCN(CC3CCN(c4ccc(NC5CCC(=O)NC5=O)nc4)CC3)CC2)c(F)c1` (stereo not shown) [Compound 104, 5-((4-(4-((1-(6-((2,6-dioxopiperidin-3-yl)amino)pyridin-3-yl)piperidin-4-yl)methyl)piperazin-1-yl)-3-fluorophenyl)amino)-3-morpholino-1,2,4-triazine-6-carboxamide], on BTK, the DC50 is < 10 nM.
